Results on four compounds are retold here after publication PMC4721923 (PLoS ONE, 2015).

Common to all, as to format: cell-based, human
In data set [1] the test system is HEL 92.1.7 cells (erythroleukemia). Kind of data set: Chemosensitivity assay (MTT-assay), HEL 92.1.7. As to conditions: 96 hours of incubation, mean ± SEM. The procedure:
(§1) Depending on the characteristics of the cells, two different assays were performed. For adherently growing cells (HaCaT, HT-29, NCI-H460, SK-MEL-3, MG-63, Capan-1), cytotoxic and cytocidal effects were determined in the crystal violet assay, whereas for loosely adherent cells (LNCaP, SK-ES-1) and cells growing in suspension (HEL 92.1.7, Jurkat, U-937) the MTT-assay was used with minor modifications. In brief, 1.5 · 10^3 (HaCaT, HT-29, NCI-H460, SK-MEL-3, MG-63, Capan-1) or 5 · 10^3 (Jurkat, U-937, HEL92.1.7, LNCaP, SK-ES-1) cells per well were seeded into flat-bottom 96-well plates (Sarstedt, Nümbrecht, Germany). All compounds were used as solutions prepared in DMSO and tested at final concentrations (8 replicates per concentration) of 1, 3, 10, 30 and 50 μM. In case of the vehicle control and test compounds, the final DMSO concentration amounted to 0.1%. Absorbance was measured at 580 nm in a 96-well plate reader (GENios pro microplate reader, Tecan, Salzburg, Austria). Effects were quantified as previously described for both assays.
In general terms: Formazan colour is commonly taken as a measure of viable cells.

The subject of the next data set is HT-29 cells. Kind of data set: Quantification of cell-associated compound by HPLC, HT-29. The conditions noted are these: 30 μM, 10 minutes; for amount of cell-associated compound: mean ± SEM. The protocol: (§2) Accumulation of bendamustine and selected bendamustine esters by HT-29 and NCI-H460 cells was determined by HPLC. For this purpose, 1.5 · 10^6 cells/well were seeded into 6-well plates (Sarstedt, Nümbrecht, Germany). After two days of cultivation, the cells were incubated in PBS containing 30 μM of 1, 2, 4 or 5 and 200 μM of umbelliferone as internal standard at 37°C for 10 minutes. After removing the medium, the cells were washed three times with PBS. Untreated cells were detached with trypsin/EDTA and counted. The treated cells were harvested by adding 200 μL of ice-cold perchloric acid (1 M) and scraping. Subsequently, the samples were vortexed and sonicated (Branson 3200 ultrasonic cleaner; Branson, Danbury, USA) for 10 minutes. After 5 minutes of centrifugation (13000 g, 4°C), the supernatants were filtered (0.2 μm Phenex; Phenomenex, Aschaffenburg, Germany) and directly analyzed by HPLC with fluorescence detection according to a recently reported validated procedure. The normalization of the measured concentration to the cell count allowed for a calculation of the cell-associated amount of the respective test compound. Additionally, the ratio of cell-associated substance compared to the applied concentration (30 μM) was calculated based on an average cell volume of 3 pL.

The test system of the next data set is Jurkat cells. Kind of data set: Detection of apoptosis (annexin V/propidium iodide assay). The protocol: Apoptosis was determined by incubating proliferating Jurkat cells with medium containing 1, 2, 4 or 5 at a concentration of 10 μM or 0.1% of DMSO (untreated control). After different periods of incubation (6, 24, 48 hours), samples were analyzed using the Annexin V-FITC apoptosis detection kit l (BD Biosciences, Heidelberg, Germany) according to the manufacturer’s protocol using 10^6 cells/mL. Cells were analyzed using a FACSCalibur flow cytometer (BD Biosciences, Heidelberg, Germany). The compensation was performed for each experiment with annexin V-FITC (530/30 BP filter) and propidium iodide (585/42 BP filter), respectively. At least 1 · 10^4 events were registered per sample and debris as well as cell aggregates were excluded by forward (FSC) versus side scatter (SSC) gates. Raw data were analyzed using FlowJo V10 software (Treestar Inc., Ashland, OR, USA).

Data set [2] has as its system LNCaP cells (prostate cancer). Kind of data set: Chemosensitivity assay (MTT-assay), LNCaP. As to conditions: 96 hours of incubation, mean ± SEM. The protocol:
as §1

Data set [3] has as its system HT-29 cells (colorectal adenocarcinoma). Kind of data set: Chemosensitivity assay (crystal violet assay), HT-29. As to conditions: 96 hours of incubation, mean ± SEM. The procedure:
as §1

Data set [4] concerns SK-MEL-3 cells (malignant melanoma). Kind of data set: Chemosensitivity assay (crystal violet assay), SK-MEL-3. As to conditions: mean ± SEM. The protocol:
as §1

In the next data set the test system is p53 in NCI-H460 cells. Kind of data set: p53 expression by immunoblotting, NCI-H460. The conditions noted are these: NCI-H460 nuclear extracts, 24 hours. The procedure: The expression of the tumor suppressor p53 by NCI-H460 and HT-29 cells was determined after incubating the cells with compounds 1, 2, 4 and 5 at different concentrations for 24 hours. The cells (from a 10-cm culture dish, 70% confluency) were washed twice with PBS and harvested by scraping after addition of ice-cold buffer A (10 mM HEPES pH = 7.9, 10 mM KCl, 0.1 mM EDTA, 0.1 mM EGTA, protease inhibitor mix (Sigma-Aldrich)). After adding Nonidet P-40 (NP-40) (Sigma, Taufkirchen, Germany) to a final concentration of 1%, the cell suspensions were vortexed and subsequently centrifuged at 13000 g and 4°C for 30 seconds. The pellets were re-suspended in buffer B (buffer A + 400 mM NaCl, 1% NP-40) and gently agitated using a Sarmix M2000 (Sarstedt, Nümbrecht, Germany) at 4°C for 15 min, followed by centrifugation (13000 g, 4°C, 5 min; Microfuge; Eppendorf, Hamburg, Germany). The concentration of soluble protein was determined according to Bradford using the Bio-Rad Protein Assay (Bio-Rad Laboratories, Munich, Germany).
An amount of 30 μg total protein of each sample and 8 μL of a biotinylated molecular weight standard (1:6 dilution) (Cell Signaling, Danvers, MA, USA) was separated by SDS-PAGE (12% gel) and afterwards electroblotted (150 V, 30 min) to nitrocellulose membrane (Peqlab, Erlangen, Germany). To prevent unspecific binding, the membranes were treated with milk powder (5% (m/v) in buffer (150 mM NaCl, 20 mM Tris, 0.1% Tween 20, pH = 7.6)) before incubation with anti-p53 rabbit mAb (dilution 1:1000) (Cell Signaling) and anti-histone H2B Ab (dilution 1:1000) (Cell Signaling) as loading control at 4°C for 14 hours. The primary antibodies and the “protein ladder” were simultaneously detected with a horseradish peroxidase (HRP)-coupled donkey anti rabbit mAb (dilution 1:1000) (Santa Cruz biotechnology, Heidelberg, Germany) or the anti-biotin HRP-coupled antibody (dilution 1:5000) (Cell Signaling), respectively. The incubation with the secondary antibody was performed at room temperature for 1 hour. The bands were detected by […] using the Pierce ECL Western Blotting Substrate (Thermo Scientific, Dreieich, Germany). After exposure, the x-ray film (Amersham Hyperfilm ECL, GE Healthcare, München, Germany) was developed (CAWOMAT 2000 IR, CAWO, Schrobenhausen, Germany) and analyzed using a GS-710 imaging densitometer and Quantity One V. 4 software (Bio-Rad Laboratories, Munich, Germany).
Background: A western blot detects proteins with antibodies after separation by electrophoresis.

The test system of a further data set is NCI-H460 cells. Kind of data set: Quantification of cell-associated compound by HPLC, NCI-H460. The conditions noted are these: 30 μM, 10 minutes, mean ± SEM. The procedure:
as §2

Data set [5] has as its system Jurkat cells (acute T-cell leukemia). Kind of data set: Chemosensitivity assay (MTT-assay), Jurkat. As to conditions: 96 hours of incubation, mean ± SEM. The procedure: as §1
[6] abbreviates: Homo sapiens, SK-MEL3, 96 hours of incubation, read-out: IC50.

Where two headings read alike, the source gives them in different places. Where only a bound is given, the exact number is not on record here.

As a reminder, the IC50 is the point on the concentration scale where inhibition reaches its midpoint. With `Cn1c(CCCC(=O)OCCN2CCCC2)nc2cc(N(CCCl)CCCl)ccc21` [Compound 5], the IC50 in data set [1] (Homo sapiens, HEL 92.1.7, 96 h) was 1 ± 0.01 µM; in [2] (Homo sapiens, read-out: IC50), 0.5 ± 0.08 µM; in [3] (Homo sapiens, read-out: IC50), 1.1 ± 0.1 µM; in data set [4] (setting [6]), 0.83 ± 0.18 µM; in [5] (Homo sapiens, 96 h), 0.61 ± 0.02 µM. In addition, the “cellular enrichment relative to bendamustine” value in the data set with HT-29 cells is reported as “approximately 70 fold”. For the same compound, the “amount of cell-associated compound” value came to 5.01 ± 0.34 nmol/10^6 cells in the data set with HT-29 cells and 1.89 ± 0.14 nmol/10^6 cells in the data set on NCI-H460 cells. Moreover, the “fraction of early apoptotic cells” value in the data set on Jurkat cells (10 μM, 6 hours) is listed as ~ 2.5%; in the data set on Jurkat cells (10 μM, 24 hours), 20%. Further, the “cells either early apoptotic or secondary necrotic” value in the data set with Jurkat cells (10 μM, 24 hours) is on record as “Approximately 50%”. Also, the “fraction of secondary necrotic cells” value with Jurkat cells (10 μM, 24 hours) is reported as 30%; with Jurkat cells (10 μM, 48 hours), 70%. The viability at 10 µM in the data set on Jurkat cells (Homo sapiens, Jurkat, 48 h, two days after treatment, read-out: viable cells) is roughly 15%. In addition, the p53 expression entry with p53 in NCI-H460 cells (10 μM) was “significantly induced”.

Regarding `COC(=O)CCCc1nc2cc(N(CCCl)CCCl)ccc2n1C` [Compound 2], the IC50 in [1] (Homo sapiens, HEL 92.1.7, 96 h) was determined as 2.5 ± 0.1 µM; in data set [2] (Homo sapiens, read-out: IC50), 0.95 ± 0.15 µM; in [3] (Homo sapiens, read-out: IC50) it was 9.4 ± 0.4 µM; in data set [4] (setting [6]) it was 13.8 ± 0.4 µM; in data set [5] (Homo sapiens, 96 h), 3.1 ± 0.1 µM. The figures for the “amount of cell-associated compound” value in the data set on HT-29 cells and in the data set with NCI-H460 cells were 2.05 ± 0.39 nmol/10^6 cells and 0.28 ± 0.06 nmol/10^6 cells, respectively. The “fraction of early apoptotic cells” value was “approximately 10%” in the data set with Jurkat cells (10 μM, 24 hours) and 15% in the data set with Jurkat cells (10 μM, 48 hours). Also, the “fraction of secondary necrotic cells” value in the data set on Jurkat cells (10 μM, 48 hours) is reported as 20–25%. In addition, the p53 expression entry in the data set on p53 in NCI-H460 cells (10 μM) was “significantly induced”.

`Cn1c(CCCC(=O)OCCN2CCOCC2)nc2cc(N(CCCl)CCCl)ccc21` [Compound 4]: the IC50 in data set [1] (Homo sapiens, HEL 92.1.7, 96 h) came to 2.4 ± 1 µM; in data set [2] (Homo sapiens, read-out: IC50), 2.2 ± 0.1 µM; in data set [3] (Homo sapiens, read-out: IC50), 9 ± 0.5 µM; in [4] (setting [6]), 20.9 ± 0.9 µM; in data set [5] (Homo sapiens, 96 h), 3.2 ± 1 µM. Besides, the “amount of cell-associated compound” value with HT-29 cells stood at 1.59 ± 0.23 nmol/10^6 cells; with NCI-H460 cells, 0.59 ± 0.04 nmol/10^6 cells. The “fraction of early apoptotic cells” value in the data set with Jurkat cells (10 μM, 24 hours) is recorded as “approximately 10%”; in the data set with Jurkat cells (10 μM, 48 hours) it was 15%. In addition, the “fraction of secondary necrotic cells” value in the data set with Jurkat cells (10 μM, 48 hours) is recorded as 20–25%. Moreover, the p53 expression entry with p53 in NCI-H460 cells (10 μM) is “significantly induced”.

As to `Cn1c(CCCC(=O)O)nc2cc(N(CCCl)CCCl)ccc21` [Compound 1, bendamustine, reference compound], the IC50 was 86.2 ± 2.6 µM in data set [1]; greater than 80 µM in [1] (Homo sapiens, HEL 92.1.7, 96 h); “only very weakly active” in data set [2]; 77.9 ± 5.6 µM in data set [2] (Homo sapiens, read-out: IC50); “ineffective” in [3]; greater than 100 µM in data set [3] (Homo sapiens, read-out: IC50). For the same compound, the IC50 result was “ineffective” in data set [4] (96 hours of incubation); greater than 100 µM in data set [4] (setting [6]); 43.4 ± 4.8 µM in data set [5]; 43 µM in data set [5] (Homo sapiens, 96 h). The entries for the “amount of cell-associated compound” value in the data set on HT-29 cells and in the data set on NCI-H460 cells were 0.07 ± 0.011 nmol/10^6 cells and 0.03 ± 0.001 nmol/10^6 cells, respectively. Moreover, in the data set on Jurkat cells (10 μM, regardless of the period of incubation (6, 24, 48 hours)), the “effect on apoptosis compared to the control cells” value was “no effect”. Besides, in the data set with p53 in NCI-H460 cells (100 μM), the p53 expression result is listed as “weakly induced”.
